Where two headings read alike, the source gives them in different places.
Columns and labels:
[1] = test system: Human B Lymphocyte cell line, SU-DHL-8; experiment: Relative cell viability CCK-8, SU-DHL-8; type: cell-based
In short: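 Cells grown in RPMI-1640 with 10% FBS, treated with compound at several concentrations, then given CCK-8 for 4 h at 37° C. Viability expressed as percent of DMSO-treated cells.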

[2] = test system: T cells isolated from mouse spleens; experiment: T cell proliferation inhibition (CFSE flow cytometry, anti-CD3/anti-CD28 stimulation); type: cell-based; details: mouse spleen T cells, 3 days; for inhibition at 0.01 µM / inhibition at 0.1 µM / inhibition at 1 µM / inhibition at 10 µM / inhibition at 30 µM / inhibition at 50 µM: Mus musculus, T-cell, 72 h, read-out: Proliferation inhibition rate (%)
In short: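 Splenic T cells from 7-week-old C57BL/6 mice were MACS-isolated, CFSE-labelled, seeded at 2×10^5 cells/well and activated with anti-CD3/anti-CD28 (0.5 μg/mL each). Compound at 10 nM–50 μM (six levels, triplicate) was present for 3 days at 37 °C before flow cytometric readout of proliferation inhibition rate.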

[3] = molecular target: T1, PDK1 (Homo sapiens, UniProt O15530); experiment: PDK1 kinase activity inhibition, IC50 (in vitro kinase assay, luminescence); type: biochemical; details: FIG. 4; read-out: IC50 for inhibiting PDK1 kinase activity
T1 construct: purchased Promega V9681
T1 sequence (O15530 1-556): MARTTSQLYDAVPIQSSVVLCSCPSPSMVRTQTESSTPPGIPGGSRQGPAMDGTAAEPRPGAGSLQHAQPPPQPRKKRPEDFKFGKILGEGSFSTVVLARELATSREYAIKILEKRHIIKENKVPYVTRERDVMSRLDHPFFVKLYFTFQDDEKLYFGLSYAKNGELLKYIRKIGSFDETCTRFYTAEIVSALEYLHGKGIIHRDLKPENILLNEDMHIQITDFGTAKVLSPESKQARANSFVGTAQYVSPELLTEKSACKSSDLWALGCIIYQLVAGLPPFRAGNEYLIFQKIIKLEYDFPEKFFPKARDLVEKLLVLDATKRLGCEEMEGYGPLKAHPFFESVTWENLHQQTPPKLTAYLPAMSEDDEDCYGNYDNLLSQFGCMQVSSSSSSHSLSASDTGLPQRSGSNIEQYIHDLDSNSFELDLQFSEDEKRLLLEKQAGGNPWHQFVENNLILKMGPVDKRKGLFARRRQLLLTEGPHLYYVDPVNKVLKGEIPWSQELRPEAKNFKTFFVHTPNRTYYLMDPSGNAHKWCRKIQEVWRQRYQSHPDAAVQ
Method: As shown in the table below, this invention establishes an in vitro kinase assay system to quantitatively evaluate PDK1 kinase activity inhibition, and utilizes this system to compare and analyze the activity of new PDK1 inhibitor candidate compounds.
Specifically, after reacting ATP (100 μM), substrate (PDKtide, 0.5 μg/μL), and PDK1 enzyme (30 ng) at a specific concentration, the difference in ATP consumption between the group treated with each candidate compound and the DMSO control group was measured using luciferase-based luminescence signals (RLU).
Additionally, enzyme kinetics analysis was performed to quantitatively analyze the effect of the compounds of the present invention on the enzymatic activity of PDK1 (3-Phosphoinositide-dependent protein kinase-1) and to confirm the inhibition pattern.
Prior to the analysis, the half-maximal inhibitory concentration (IC50) values of the compounds GO15F, GO86, and GO88 of the present invention for inhibiting PDK1 kinase activity were determined, and the results are shown in FIG. 4.

[4] = Homo sapiens, SU-DHL-8, 48 h, read-out: Relative cell viability (%), SU-DHL-8, 1 μM, 48 hours, untreated (DMSO) = 100%
[5] = Homo sapiens, SU-DHL-8, 48 h, read-out: Relative cell viability (%), SU-DHL-8, 10 μM, 48 hours, untreated (DMSO) = 100%
[6] = 30 μM, 48 hours, untreated (DMSO) = 100%
[7] = 50 μM, 48 hours, untreated (DMSO) = 100%

SMILES	viability at 1 µM [1, 4] [%]	viability at 10 µM [1, 5] [%]	inhibition at 0.01 µM ([2]; compound 10 nM) [%]	inhibition at 0.1 µM ([2]; compound 100 nM) [%]	inhibition at 1 µM ([2]; compound 1 μM) [%]	inhibition at 10 µM ([2]; compound 10 μM) [%]	inhibition at 30 µM ([2]; compound 30 μM) [%]	inhibition at 50 µM ([2]; compound 50 μM) [%]	Relative cell viability (%), SU-DHL-8 ([1]; human, 48 h, 30 µM) [%]	Relative cell viability (%), SU-DHL-8 ([1]; human, 48 h, 50 µM) [%]	Relative cell viability (%), SU-DHL-8 [1, 6] [%]	Relative cell viability (%), SU-DHL-8 [1, 7] [%]	Proliferation inhibition rate (%) ([2]; compound 10 nM)	Proliferation inhibition rate (%) ([2]; compound 100 nM)	Proliferation inhibition rate (%) ([2]; compound 1 μM)	IC50 [3] [nM]	further results
Nc1ncccc1C(=O)NCCCCCCCCCCCCN1CCOCC1 [Compound 2, 2-Amino-N-(12-morpholin-4-yl-dodecyl)-nicotinamide]	31	26	-1.47	0	0	100	100	100	–	–	–	–	–	–	–	–	viability at 30 µM ([1]; Homo sapiens, SU-DHL-8, 48 h, read-out: Relative cell viability (%), SU-DHL-8, 30 μM, 48 hours, untreated (DMSO) = 100%): 25.3%; viability at 50 µM ([1]; Homo sapiens, SU-DHL-8, 48 h, read-out: Relative cell viability (%), SU-DHL-8, 50 μM, 48 hours, untreated (DMSO) = 100%): 24.7%
Nc1ncccc1C(=O)NCCCCCCCCCCCCN1CCNCC1 [Compound 5, 2-Amino-N-(12-(piperazin-1-yl)dodecyl)-nicotinamide]	8.8	5.87	–	100	100	100	100	100	4.63	3.67	–	–	–	–	–	–	Proliferation inhibition rate (%) ([2]; compound 10 nM, listed as GO78, 0.01 µM): −27.49%
CC1(C)CN(CCCCCCCCCCCCC(=O)Nc2nc(N)c3[nH]cnc3n2)CCO1 [Compound 11, 12-[4-(2,2-dimethylmorpholin-4-yl)]dodecyl-N-(6-aminopurine-2-yl) carboxamide]	–	–	–	–	–	–	–	–	–	–	4.82	3.29	−25.47	100.00	100.00	11.3	Relative cell viability (%), SU-DHL-8 ([1]; 1 μM, 48 hours, untreated (DMSO) = 100%): 7.63%; Relative cell viability (%), SU-DHL-8 ([1]; 10 μM, 48 hours, untreated (DMSO) = 100%): 6.09%; Proliferation inhibition rate (%) ([2]; compound 10 μM): 100.00%; Proliferation inhibition rate (%) ([2]; compound 30 μM): 100.00%; Proliferation inhibition rate (%) ([2]; compound 50 μM): 100.00%
Nc1ncccc1C(=O)NCCCCCCCCCCCCN1CCNCC1 [Compound 14, 2-Amino-N-(12-(piperazin-1-yl)dodecyl)nicotinamide]	–	–	–	–	–	–	–	–	1.16	0.32	–	–	–	–	–	13	Relative cell viability (%), SU-DHL-8 ([1]; human, 48 h, 1 µM): 9.28%; Relative cell viability (%), SU-DHL-8 ([1]; human, 48 h, 10 µM): 3.31%; Proliferation inhibition rate (%) ([2]; compound 10 nM, listed as GO88, 0.01 µM): 17.83%; Proliferation inhibition rate (%) ([2]; compound 10 μM, listed as GO88, 10 µM): 85.09%; Proliferation inhibition rate (%) ([2]; compound 30 μM, listed as GO88, 30 µM): 98.95%
Nc1nc(NC(=O)CCCCCCCCCCCCN2CCN(CCO)CC2)nc2nc[nH]c12 [Compound 15, 12-[4-(2-hydroxyethyl)piperazin-1-yl]dodecyl-N-(6-aminopurine-2-yl) carboxamide]	–	–	-0.4	100	100	100	100	100	–	–	–	–	–	–	–	–	–
Nc1ncccc1C(=O)NCCCCCCCCCCCCF [Compound 57, 2-Amino-N-(12-fluoro-dodecyl)-nicotinamide]	–	–	–	–	–	–	100	100	–	–	15.63	11.94	−9.32	−5.28	16.20	380	viability at 1 µM ([1]; Homo sapiens, SU-DHL-8, 48 h, 1 μM, 48 hours, untreated (DMSO) = 100%, read-out: Relative cell viability (%), SU-DHL-8): 19%; viability at 10 µM ([1]; Homo sapiens, SU-DHL-8, 48 h, 10 μM, 48 hours, untreated (DMSO) = 100%, read-out: Relative cell viability (%), SU-DHL-8): 18.8%

Source: US20260183274A1, “PDK1 REGULATORY COMPOUND AND COMPOSITION CONTAINING THE SAME” (PROVIBIO CO., LTD., priority 2024, published 2026)
